These results are taken from ChEMBL document CHEMBL1201862, “PubChem BioAssay data set” (2004).

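Cultured in 96-well plates, cells were exposed to test compound for 48 hours across five concentrations. Abbreviation: GI50, concentration required for 50% inhibition of growth.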 Calls of active or inactive are those of the source. No stated cut-off is given here; in the data, active = GI50 up to about 1.1 µM and inactive = higher.

Test systems include CCRF-CEM; LOX IMVI; 786-0; IGROV-1; NCI/ADR-RES; HT-29; SNB-19; UO-31; SF-268; DU-145; COLO 205; SK-OV-3; MDA-MB-231; NCI-H226; Malme-3M; SR; MCF7.
Assay in all cases: inhibition of tumour cell growth, NCI panel, 48 h

For the compound `CC(C)(C)C1CCC2c3c([nH]c4ccccc34)C3C(=O)N(c4ccccc4Cl)C(=O)C3C2C1` (centres undefined), the GI50 in the experiment on CCRF-CEM was 15.3 µM (inactive); in the experiment on LOX IMVI, 10.6 µM (inactive); in the experiment on 786-0, 10.3 µM (inactive); in the experiment with IGROV-1, 25.9 µM (inactive); in the experiment with NCI/ADR-RES it was 15.3 µM (inactive); in the experiment with HT-29 it was 5.86 µM (inactive). Moreover, the GI50 with SNB-19 was 35.8 µM (inactive); with UO-31 it was 14.5 µM (inactive); in the experiment with SF-268, 14.4 µM (inactive); in the experiment on DU-145 it was 15.1 µM (inactive); in the experiment on COLO 205, > 10 µM (inactive); in the experiment on SK-OV-3, 22.8 µM (inactive). Also, the GI50 in the experiment with MDA-MB-231 was 10.3 µM (inactive); in the experiment with NCI-H226, > 10 µM (inactive); with Malme-3M it was 17.3 µM (inactive); in the experiment on SR, 13.4 µM (inactive).

In the case of `CCn1c2ccccc2n2c(=O)c3c(c(C#N)c12)CCCC3`, the GI50 in the experiment on CCRF-CEM, in the experiment with LOX IMVI, with 786-0, with IGROV-1, with NCI/ADR-RES and with HT-29 was > 100 µM (inactive) each time. Besides, the GI50 in the experiment with SNB-19 was > 100 µM (inactive); with UO-31 it was 93.5 µM (inactive); in the experiment with MCF7, > 100 µM (inactive); in the experiment with SF-268 it was > 100 µM (inactive); in the experiment on DU-145, > 100 µM (inactive); in the experiment on COLO 205, > 100 µM (inactive). The GI50 in the experiment with SK-OV-3, with MDA-MB-231, in the experiment with NCI-H226 and in the experiment on Malme-3M was > 100 µM (inactive) each time.

On to `O=[N+]([O-])c1ccc(/C=C(/c2ccc([N+](=O)[O-])o2)S(=O)(=O)c2ccccc2)o1`, for which the GI50 in the experiment on 786-0 is 3.17 µM (inactive); with IGROV-1 it was 16.6 µM (inactive); with NCI/ADR-RES, 18 µM (inactive); with HT-29, 4.49 µM (inactive); in the experiment on SNB-19, 20.1 µM (inactive); in the experiment with UO-31, 4.34 µM (inactive). Also, the GI50 in the experiment on MCF7 is 11.8 µM (inactive); in the experiment on SF-268 it was 15.6 µM (inactive); in the experiment on DU-145 it was 14.8 µM (inactive); in the experiment on COLO 205 it was 2.13 µM (inactive); in the experiment on SK-OV-3 it was 29.4 µM (inactive); in the experiment with MDA-MB-231, 3.19 µM (inactive). Further, the GI50 was 1.42 µM (inactive) in the experiment with NCI-H226, 2.45 µM (inactive) in the experiment on Malme-3M and 1.02 µM (active) in the experiment on SR.

Turning to `O=C(NC(Cc1ccccc1)P(=O)(O)c1ccccc1)OCc1ccccc1` (centres undefined), the GI50 in the experiment on CCRF-CEM, in the experiment on LOX IMVI, in the experiment on 786-0, in the experiment with IGROV-1, in the experiment with NCI/ADR-RES and in the experiment with HT-29 was > 100 µM (inactive) throughout. Besides, the GI50 in the experiment with SNB-19, in the experiment on UO-31, in the experiment with MCF7, with SF-268, in the experiment on DU-145 and with COLO 205 was > 100 µM (inactive) each time. The GI50 in the experiment with SK-OV-3, in the experiment with NCI-H226, with Malme-3M and with SR was > 100 µM (inactive) each time.

Turning to `COc1ccc(C2NC3=C(CCCC3)C3(C#N)C(=O)N=C(N)C23C#N)cc1` (centres undefined), the GI50 was 23 µM (inactive) with CCRF-CEM; > 100 µM (inactive) with LOX IMVI; > 100 µM (inactive) in the experiment with 786-0; > 100 µM (inactive) in the experiment with IGROV-1; > 100 µM (inactive) in the experiment with NCI/ADR-RES; > 100 µM (inactive) in the experiment with HT-29. Further, the GI50 in the experiment with SNB-19, with UO-31, in the experiment with MCF7, in the experiment on SF-268, with DU-145 and in the experiment with COLO 205 was > 100 µM (inactive) in each case. The GI50 in the experiment with SK-OV-3, with MDA-MB-231, in the experiment with NCI-H226 and with Malme-3M was > 100 µM (inactive) each time.

For `C=CCOC(=O)CCCCCCCCCCCCCCCOC(=O)C1=C(CCC[C@@H](C)O[Si](C)(C)C(C)(C)C)NC(=O)N2[C@H](CC3(CC/C=C\[C@H](CC)O[Si](C(C)C)(C(C)C)C(C)C)OCCO3)CC[C@H]12`, the GI50 in the experiment on CCRF-CEM, in the experiment on 786-0, in the experiment on NCI/ADR-RES, with SNB-19, with UO-31 and in the experiment on MCF7 was > 100 µM (inactive) in each case. Also, the GI50 in the experiment with SF-268, in the experiment on DU-145, in the experiment with COLO 205, with SK-OV-3, in the experiment on MDA-MB-231 and in the experiment with NCI-H226 was > 100 µM (inactive) each time. For the same compound, the GI50 in the experiment with Malme-3M was > 100 µM (inactive).

Consider `COC(=O)C(Cc1c[nH]c2ccccc12)NC(=O)C(Cc1c[nH]cn1)NC(=O)C1CCC(=O)N1C(=O)OCc1ccccc1` (centres undefined), for which the GI50 with CCRF-CEM, in the experiment on 786-0, with IGROV-1, in the experiment with HT-29, with SNB-19 and in the experiment on UO-31 was > 100 µM (inactive) throughout. The GI50 in the experiment with MCF7, in the experiment on COLO 205, with NCI-H226, in the experiment on Malme-3M and in the experiment with SR was > 100 µM (inactive) throughout.

As for `O=C(O)COc1c(Cl)cc(Cl)c(C(c2c(Cl)cc(Cl)c(OCC(=O)O)c2Cl)C(Cl)(Cl)Cl)c1Cl`, the GI50 in the experiment with LOX IMVI was 33.7 µM (inactive); in the experiment on 786-0, 37.2 µM (inactive); in the experiment on IGROV-1, 32.8 µM (inactive); in the experiment with NCI/ADR-RES, 34 µM (inactive); in the experiment on HT-29 it was 29 µM (inactive); with SNB-19, > 100 µM (inactive). Besides, the GI50 with UO-31 is 23 µM (inactive); with MCF7 it was 36.1 µM (inactive); in the experiment on SF-268, 39.6 µM (inactive); in the experiment on DU-145 it was 38.3 µM (inactive); in the experiment with COLO 205, 40 µM (inactive); in the experiment on SK-OV-3 it was 20.9 µM (inactive). Besides, the results for the GI50 in the experiment on MDA-MB-231, in the experiment on NCI-H226 and in the experiment on Malme-3M were 24.9 µM (inactive), 21.4 µM (inactive) and 28.7 µM (inactive), respectively.

For `O=C1NN(Cc2ccccc2)C(=O)N2CCC[C@@H]12`, the GI50 with CCRF-CEM, with LOX IMVI, in the experiment on 786-0, in the experiment with IGROV-1, with NCI/ADR-RES and with HT-29 was > 100 µM (inactive) in each case. In addition, the GI50 in the experiment with SNB-19, with MCF7, with SF-268, in the experiment with DU-145, in the experiment with COLO 205 and with SK-OV-3 was > 100 µM (inactive) in each case. In addition, the results for the GI50 in the experiment on MDA-MB-231, with NCI-H226 and in the experiment with Malme-3M were > 100 µM (inactive), 0.0505 µM (active) and > 100 µM (inactive), respectively.

As for `CC(=O)O[C@H]1CC[C@@]2(C)C(=CC[C@@H]3[C@@H]2CC[C@]2(C)C(=N/O)/C(=C/c4ccc([N+](=O)[O-])cc4)C[C@@H]32)C1`, the GI50 with CCRF-CEM was 3.76 µM (inactive); with LOX IMVI, 6.52 µM (inactive); in the experiment with 786-0, 4.89 µM (inactive); in the experiment with IGROV-1 it was 12.8 µM (inactive); with NCI/ADR-RES it was 6.84 µM (inactive); in the experiment with HT-29, 5.43 µM (inactive). The GI50 is 2.94 µM (inactive) in the experiment on SNB-19; 4.44 µM (inactive) with UO-31; 3.66 µM (inactive) with SF-268; 5.26 µM (inactive) in the experiment with DU-145; 2.29 µM (inactive) in the experiment with COLO 205; 11.9 µM (inactive) in the experiment with SK-OV-3. The GI50 is 8.89 µM (inactive) in the experiment on MDA-MB-231, 7.66 µM (inactive) in the experiment with NCI-H226 and 4.61 µM (inactive) with Malme-3M.

`O=C(/C=C/c1cccc([N+](=O)[O-])c1)N1CCN(CCOC(c2ccccc2)c2ccccc2)CC1`: the GI50 with CCRF-CEM was 28.4 µM (inactive); in the experiment on LOX IMVI, 22.9 µM (inactive); in the experiment with 786-0 it was 38.2 µM (inactive); in the experiment on IGROV-1, 42.6 µM (inactive); in the experiment with NCI/ADR-RES it was 48.6 µM (inactive); with HT-29 it was 19.2 µM (inactive). The GI50 with SNB-19 is > 100 µM (inactive); in the experiment with UO-31, 33.1 µM (inactive); with MCF7, 27.9 µM (inactive); in the experiment with DU-145, 47.3 µM (inactive); with COLO 205, 21.7 µM (inactive); in the experiment with SK-OV-3, > 100 µM (inactive). Also, the GI50 is 31.8 µM (inactive) in the experiment on Malme-3M and 16.1 µM (inactive) in the experiment with SR.

`O=c1[nH]c2ccc(O)cc2o1`: the GI50 with CCRF-CEM, with 786-0, with IGROV-1, in the experiment with NCI/ADR-RES, in the experiment on HT-29 and with SNB-19 was > 100 µM (inactive) throughout. The GI50 in the experiment on UO-31, with MCF7, in the experiment with SF-268, in the experiment with DU-145, in the experiment with COLO 205 and in the experiment with SK-OV-3 was > 100 µM (inactive) throughout. Also, the GI50 with MDA-MB-231 is > 100 µM (inactive); in the experiment with NCI-H226, > 100 µM (inactive); in the experiment with Malme-3M, 0.601 µM (active); with SR, > 100 µM (inactive).

With `COc1ccc(CC2C3=C(CCCC3)CCN2C)cc1` (centres undefined), the GI50 in the experiment on CCRF-CEM was > 100 µM (inactive); in the experiment on LOX IMVI, > 100 µM (inactive); with 786-0, > 100 µM (inactive); in the experiment on IGROV-1, > 100 µM (inactive); in the experiment with NCI/ADR-RES, > 100 µM (inactive); with HT-29, 65.8 µM (inactive). For the same compound, the GI50 is > 100 µM (inactive) in the experiment with SNB-19; 58.3 µM (inactive) with UO-31; > 100 µM (inactive) in the experiment with MCF7; 43.1 µM (inactive) with SF-268; > 100 µM (inactive) in the experiment on DU-145; > 100 µM (inactive) with COLO 205. Also, the GI50 in the experiment with SK-OV-3, in the experiment on MDA-MB-231, in the experiment on NCI-H226 and in the experiment with Malme-3M was > 100 µM (inactive) each time.
